Source: patent US4513008A, “Virucidal compositions and therapy” (The Vinoxen Company, Inc., priority 1982, dated 1985)
≈ marks a conversion by molar mass, not a printed value. Entries after “also recorded” stand apart in the source; their conditions may differ.

Legend:
HSV-2 [1] = assay: Separate experiments: speed of virus inhibition by DHA
HSV-2 [2] = assay: In vivo mouse bioassay: intravaginal HSV-2 infection, topical treatment; design: species or system HSV-2 strain 333 in female Swiss Webster mice; key to Max. Lesion Score: 0: no clinical signs of vaginal infection; ±: slight perivaginal redness; perivaginal redness and swelling of 1-2 mm; perivaginal redness and swelling of 2-3 mm; perivaginal and perianal redness and swelling of 3-4 mm; perivaginal and perianal redness and swelling of 4 mm or more, with exudate; settings: for # Infected, Day 14 / # of Deaths, Day 14: 10 animals/group
[3] = test system: herpes simplex virus type 2 (HSV-2); assay: In vitro HSV-2 bioassay: virucidal plaque assay (HEP-2 cells); type: cell-based, HSV-2 strain 333; settings: for plaque count / titer: Table 3
Experimental: Evidence of the efficacy of the virucides of the invention in vitro has been obtained from bioassay using HSV-2, using a standard assay procedure. Serial dilutions of the compounds were tested for their ability to prevent plaque formation by a stock virus suspension. Reduction of plaque titer by test compounds as compared to mock treated controls was indicative of virucidal activity. […] These represent the upper limit for the drug concentration, since dilutions were not carried beyond 1:6400 and in some cases 1:12800.
Cell Culture. Cell cultures used for the propagation and titration of HSV-2 were the human diploid lung embryonic line MRC-5 and the human malignant epitheloid cell line HEP-2 respectively. Stock monolayer cultures of both cell lines were propagated in Dulbecco's Modified Eagle's medium (DME) supplemented with 10% (V/V) calf serum. Spinner cultures for mass production of HEP-2 cells were grown in Joklik's medium supplemented with 10% (V/V) calf serum and 1% (W/V) pluronic acid. Monolayer cultures of HEP-2 cells for plaque or virucidal assay were seeded into 60 mm dishes in DME supplemented with 10% calf serum and antibiotics. Stock cultures were maintained in antibiotic free medium.
Herpes simplex virus, type 2 (HSV-2) strain 333 was obtained from Dr. John Hughes of the Dept. of Medical Microbiology, College of Medicine, The Ohio State University. Stocks of HSV-2 were prepared in the human diploid embryonic lung cell line, MRC-5. Confluent MRC-5 monolayer cultures in T-75 plastic flasks were washed one time with Hank's and Balanced Salt solution (HBSS) and infected with 0.5 ml of HSV-2, strain 333 stock. Virus was adsorbed for 1 hour at 37° C. Then the culture was refed with 15 ml of DME supplemented with 1% (V/V) calf serum. Virus was harvested 48 hours later when cytopathology was complete. Cultures were frozen and thawed rapidly three times to release cell associated virus, clarified by centrifugation at 10,000×g for 15 minutes at 4° C., aliquoted into 5 ml lots and frozen at -70° C. One lot was taken for virus titration.
HSV-2 was titrated by plaque assay in HEP-2 cells under a semi-solid methyl cellulose overlay. Tenfold serial dilutions of virus were prepared in HBSS and 0.3 ml aliquots of each dilution inoculated onto triplicate HEP-2 cell monolayers in 60 mm plastic petri dishes. Adsorption of virus was for 1 hour at 37° C. Plates were then overlayed with 5 ml of a 1:1 mixture of 2×DME supplemented with 2% (V/V) calf serum and 3% (W/V) methyl cellulose to give a final 1×DME supplemented with 1% calf serum and 1.5% methylcellulose. Infected plates were incubated at 37° C. in a humidified 10% CO2 atmosphere for 48 hours. Virus plaques were visualized by staining with crystal violet and counted under a dissecting microscope. Virus titers were calculated from the plaque numbers by averaging the plaque count and multiplying by 3.3 (0.3 ml plates).
The following procedure was employed to assay virucidal activity in various test samples. Compounds were received as a solution in DMSO and were serially diluted in HBSS as described for each experiment. For the test, 1 ml of each dilution was mixed with 1 ml of a stock virus suspension diluted to approximately 9×10^3 plaque forming units (P.F.U.)/ml. This test mixture was incubated at 25° C. for 30 minutes, then inoculated onto a cell culture (HEP-2) for plaque assay as described previously. Mock treated (virus plus HBSS) controls were included with each test. Any reduction of plaque titer by test compounds as compared to the mock treated control was indicative of virucidal activity.
Samples from RP-HPLC fractionation of the CLOH, produced according to Example 2, as well as purified samples of palmitic, myristic and oleic acids and Vitamin D2, were tested for HSV-2 bioactivity. […] Pure oleic acid was not active in this assay, nor were palmitic and myristic acids and Vitamin D2. […]

CCC=CCC=CCC=CCC=CCC=CCC=CCCC(=O)O [DHA, 4,7,10,13,16,19 Docosahexaenoic Acid]
virus inhibited (HSV-2 [1]; within 30 seconds of contact): more than 98%
virus inhibited (HSV-2 [1]; within 30 minutes of contact): > 99.99%
% Mortality (HSV-2 [2]; DMSO & High DHA (10 mg/ml)): 20%
Day of Maximum % Morbidity (HSV-2 [2]; DMSO & High DHA (10 mg/ml)): 7 days
Maximum % Morbidity (HSV-2 [2]; DMSO & High DHA (10 mg/ml)): 40%
Mean Day of Death (HSV-2 [2]; DMSO & High DHA (10 mg/ml)): 8.5 days
% Mortality (HSV-2 [2]; DMSO & Low DHA (1 mg/ml)): 30%
Day of Maximum % Morbidity (HSV-2 [2]; DMSO & Low DHA (1 mg/ml)): 7 days
Maximum % Morbidity (HSV-2 [2]; DMSO & Low DHA (1 mg/ml)): 40%
Mean Day of Death (HSV-2 [2]; DMSO & Low DHA (1 mg/ml)): 11.7 days
# Infected, Day 14 (HSV-2 [2]; High DHA 10 mg/ml in DMSO): 4
# of Deaths, Day 14 (HSV-2 [2]; High DHA 10 mg/ml in DMSO): 2
# Infected, Day 14 (HSV-2 [2]; High DHA 10 mg/ml in PEG): 5
# of Deaths, Day 14 (HSV-2 [2]; High DHA 10 mg/ml in PEG): 3
# Infected, Day 14 (HSV-2 [2]; Low DHA 1 mg/ml in DMSO): 4
# of Deaths, Day 14 (HSV-2 [2]; Low DHA 1 mg/ml in DMSO): 2
Max. Lesion Score (HSV-2 [2]; Low DHA 1 mg/ml in PEG): ±
# Infected, Day 14 (HSV-2 [2]; Low DHA 1 mg/ml in PEG): 1
# of Deaths, Day 14 (HSV-2 [2]; Low DHA 1 mg/ml in PEG): 0
% Mortality (HSV-2 [2]; Ointment & High DHA (10 mg/ml)): 30%
Day of Maximum % Morbidity (HSV-2 [2]; Ointment & High DHA (10 mg/ml)): 7 days
Maximum % Morbidity (HSV-2 [2]; Ointment & High DHA (10 mg/ml)): 50%
Mean Day of Death (HSV-2 [2]; Ointment & High DHA (10 mg/ml)): 11.7 days
% Mortality (HSV-2 [2]; Ointment & Low DHA (1 mg/ml)): 0%
Day of Maximum % Morbidity (HSV-2 [2]; Ointment & Low DHA (1 mg/ml)): 6 days
Maximum % Morbidity (HSV-2 [2]; Ointment & Low DHA (1 mg/ml)): 10%
Mean Day of Death (HSV-2 [2]; Ointment & Low DHA (1 mg/ml)): > 14 days
efficacy in mice in words (HSV-2 [2]; topical, HSV-2 infected mice): effective virucidal activity against HSV-2, especially the low dose ointment preparation; also recorded: highly effective in comparison with ACV in reducing lesions and in reducing mortality rates in mice; also recorded: a low dose of DHA in the particular ointment vehicle used for test purposes appeared to have a higher activity than a high dose of the same material in the same vehicle
MIC ([3]; Human alphaherpesvirus 2, 0.5 h, Table 4 run, 30 min at 25° C., upper limit, dilutions to 1:12800, read-out: MIC (lowest concentration producing a 3-log reduction in virus titer)): 0.47 µg/mL (≈ 1.43 µM)
plaque count ([3]; dilution 1:10): 0
titer ([3]; dilution 1:10, control titer 4.5 × 10^3): 0
plaque count ([3]; dilution 1:100): 0
titer ([3]; dilution 1:100): 0
titer ([3]; dilution 1:400): 0
plaque count ([3]; dilution 1:400, TNTC = too numerous to count): 0
titer ([3]; dilution 1:800): 0
plaque count ([3]; dilution 1:800, TNTC = too numerous to count): 0
titer ([3]; dilution 1:1600): 0
plaque count ([3]; dilution 1:1600, TNTC = too numerous to count): 0
titer ([3]; dilution 1:3200): 0
plaque count ([3]; dilution 1:3200, TNTC = too numerous to count): 0
titer ([3]; dilution 1:6400): 0
plaque count ([3]; dilution 1:6400, TNTC = too numerous to count): 0
titer ([3]; dilution 1:12800): 0
plaque count ([3]; dilution 1:12800, TNTC = too numerous to count): 0
virucidal activity against HSV-2 in words ([3]; in vitro bioassay): potent and fast-acting virucides
